Calls of active or inactive are those of the source. No cut-off for these calls is given here.
Key:
[1] = target: 3-phosphoinositide-dependent protein kinase 1 (Homo sapiens) (UniProt O15530); test: Inhibition of PDPK1 (unknown origin) at 10 uM by Ambit Kinomescan binding assay
[2] = target: Serine/threonine-protein kinase N2 (Homo sapiens) (UniProt Q16513); test: Inhibition of PKN2 Lys2 labeling site in human A-375 cells at 0.05 uM by KiNativ Profiling analysis relative to control; format: cell-based
[3] = target: Calcium/calmodulin-dependent protein kinase type II subunit delta (Homo sapiens) (UniProt Q13557); test: Inhibition of CaMK2d Lys1 labeling site in human A-375 cells at 5 uM by KiNativ Profiling analysis relative to control; format: cell-based
[4] = target: T1, Serine/threonine-protein kinase STK11 (Homo sapiens) (UniProt Q15831); test: Inhibition of LKB1 K2 labeling site in human Huh-7 cells at 1 uM by KiNativ Profiling analysis relative to control; format: cell-based
T1 sequence (whole entry): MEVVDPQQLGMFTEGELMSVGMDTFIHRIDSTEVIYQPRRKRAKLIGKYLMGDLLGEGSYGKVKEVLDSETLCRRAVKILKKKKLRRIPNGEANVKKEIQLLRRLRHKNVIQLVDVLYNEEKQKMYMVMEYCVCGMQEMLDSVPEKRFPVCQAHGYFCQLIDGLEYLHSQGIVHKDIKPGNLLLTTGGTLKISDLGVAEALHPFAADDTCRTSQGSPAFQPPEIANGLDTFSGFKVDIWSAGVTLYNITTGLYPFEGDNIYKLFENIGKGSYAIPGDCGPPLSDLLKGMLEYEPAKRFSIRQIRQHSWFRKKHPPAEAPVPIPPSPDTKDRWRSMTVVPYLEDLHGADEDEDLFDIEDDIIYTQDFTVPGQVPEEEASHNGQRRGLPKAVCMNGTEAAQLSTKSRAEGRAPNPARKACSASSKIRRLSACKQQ

[5] = target: T2, Acylglycerol kinase, mitochondrial (Homo sapiens) (UniProt Q53H12); test: Inhibition of AGK ATP labeling site in human Huh-7 cells at 1 uM by KiNativ Profiling analysis relative to control; format: cell-based
T2 sequence (whole entry): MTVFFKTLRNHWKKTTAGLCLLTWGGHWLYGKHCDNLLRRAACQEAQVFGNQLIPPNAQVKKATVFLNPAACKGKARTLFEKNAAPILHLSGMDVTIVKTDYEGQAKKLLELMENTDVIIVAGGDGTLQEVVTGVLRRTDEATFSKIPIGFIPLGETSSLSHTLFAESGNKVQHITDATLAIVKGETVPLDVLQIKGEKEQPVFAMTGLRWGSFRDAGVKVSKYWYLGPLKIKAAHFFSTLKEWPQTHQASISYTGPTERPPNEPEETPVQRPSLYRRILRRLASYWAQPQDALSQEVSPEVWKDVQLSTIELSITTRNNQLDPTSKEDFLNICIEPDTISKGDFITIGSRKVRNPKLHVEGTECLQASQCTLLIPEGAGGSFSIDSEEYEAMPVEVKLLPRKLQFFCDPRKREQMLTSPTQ

[6] = target: Serine/threonine-protein kinase 32B (Homo sapiens) (UniProt Q9NY57); test: Inhibition of YANK2 (unknown origin) at 10 uM by Ambit Kinomescan binding assay
[7] = target: T3, Serine/threonine-protein kinase 3 (Homo sapiens) (UniProt Q13188); test: Inhibition of MST2 Lys2 labeling site harbouring IHRDIKAGNILLNTEGHAK in human Huh-7 cells at 1 uM by KiNativ Profiling analysis relative to control; format: cell-based
T3 sequence (whole entry): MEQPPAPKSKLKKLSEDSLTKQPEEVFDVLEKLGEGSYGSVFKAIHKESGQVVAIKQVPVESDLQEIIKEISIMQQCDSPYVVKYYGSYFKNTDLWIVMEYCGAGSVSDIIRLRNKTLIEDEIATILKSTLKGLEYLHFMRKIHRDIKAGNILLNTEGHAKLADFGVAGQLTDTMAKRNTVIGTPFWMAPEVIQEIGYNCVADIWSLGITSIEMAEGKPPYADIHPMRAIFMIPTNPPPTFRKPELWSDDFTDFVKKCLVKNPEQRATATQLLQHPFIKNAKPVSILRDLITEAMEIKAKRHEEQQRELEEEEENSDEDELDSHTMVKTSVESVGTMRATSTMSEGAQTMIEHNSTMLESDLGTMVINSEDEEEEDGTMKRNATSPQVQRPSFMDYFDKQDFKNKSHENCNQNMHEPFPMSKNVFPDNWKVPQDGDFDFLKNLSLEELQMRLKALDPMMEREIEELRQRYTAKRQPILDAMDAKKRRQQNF

[8] = target: Cyclin-dependent kinase 11B (Homo sapiens) (UniProt P21127); test: Inhibition of PITSLRE Lys2 labeling site in human Huh-7 cells at 1 uM by KiNativ Profiling analysis relative to control; format: cell-based
[9] = target: Ribosomal protein S6 kinase alpha-3 (Homo sapiens) (UniProt P51812); test: Inhibition of RSK2 domain2 ACT labeling site in human Huh-7 cell lysate at 1 uM by KiNativ Profiling analysis relative to control; format: subcellular
[10] = target: Serine/threonine-protein kinase WNK1 (Homo sapiens) (UniProt Q9H4A3); test: Inhibition of Wnk1 Lys2 labeling site in human Huh-7 cell lysate at 1 uM by KiNativ Profiling analysis relative to control; format: subcellular
[11] = target: Cyclin-dependent kinase 1 (Homo sapiens) (UniProt P06493); test: Inhibition of CDC2 Lys1 labeling site in human Huh-7 cell lysate at 1 uM by KiNativ Profiling analysis relative to control; format: subcellular
[12] = target: Glycogen synthase kinase-3 alpha (Homo sapiens) (UniProt P49840); test: Inhibition of GSK3A Lys2 labeling site in human Huh-7 cell lysate at 1 uM by KiNativ Profiling analysis relative to control; format: subcellular
[13] = target: Casein kinase II subunit alpha (Homo sapiens) (UniProt P68400); test: Inhibition of CSNK2A1 (unknown origin) at 1 uM by Ambit Kinomescan binding assay relative to control; values are per cent of control
[14] = target: Mitogen-activated protein kinase kinase kinase 12 (Homo sapiens) (UniProt Q12852); test: Inhibition of DLK (unknown origin) at 1 uM by Ambit Kinomescan binding assay relative to control
[15] = target: Activated CDC42 kinase 1 (Homo sapiens) (UniProt Q07912); test: Inhibition of TNK2 (unknown origin) at 1 uM by Ambit Kinomescan binding assay relative to control

Serine/threonine-protein kinase WNK1 (Homo sapiens), sequence (Q9H4A3 whole entry, looked up): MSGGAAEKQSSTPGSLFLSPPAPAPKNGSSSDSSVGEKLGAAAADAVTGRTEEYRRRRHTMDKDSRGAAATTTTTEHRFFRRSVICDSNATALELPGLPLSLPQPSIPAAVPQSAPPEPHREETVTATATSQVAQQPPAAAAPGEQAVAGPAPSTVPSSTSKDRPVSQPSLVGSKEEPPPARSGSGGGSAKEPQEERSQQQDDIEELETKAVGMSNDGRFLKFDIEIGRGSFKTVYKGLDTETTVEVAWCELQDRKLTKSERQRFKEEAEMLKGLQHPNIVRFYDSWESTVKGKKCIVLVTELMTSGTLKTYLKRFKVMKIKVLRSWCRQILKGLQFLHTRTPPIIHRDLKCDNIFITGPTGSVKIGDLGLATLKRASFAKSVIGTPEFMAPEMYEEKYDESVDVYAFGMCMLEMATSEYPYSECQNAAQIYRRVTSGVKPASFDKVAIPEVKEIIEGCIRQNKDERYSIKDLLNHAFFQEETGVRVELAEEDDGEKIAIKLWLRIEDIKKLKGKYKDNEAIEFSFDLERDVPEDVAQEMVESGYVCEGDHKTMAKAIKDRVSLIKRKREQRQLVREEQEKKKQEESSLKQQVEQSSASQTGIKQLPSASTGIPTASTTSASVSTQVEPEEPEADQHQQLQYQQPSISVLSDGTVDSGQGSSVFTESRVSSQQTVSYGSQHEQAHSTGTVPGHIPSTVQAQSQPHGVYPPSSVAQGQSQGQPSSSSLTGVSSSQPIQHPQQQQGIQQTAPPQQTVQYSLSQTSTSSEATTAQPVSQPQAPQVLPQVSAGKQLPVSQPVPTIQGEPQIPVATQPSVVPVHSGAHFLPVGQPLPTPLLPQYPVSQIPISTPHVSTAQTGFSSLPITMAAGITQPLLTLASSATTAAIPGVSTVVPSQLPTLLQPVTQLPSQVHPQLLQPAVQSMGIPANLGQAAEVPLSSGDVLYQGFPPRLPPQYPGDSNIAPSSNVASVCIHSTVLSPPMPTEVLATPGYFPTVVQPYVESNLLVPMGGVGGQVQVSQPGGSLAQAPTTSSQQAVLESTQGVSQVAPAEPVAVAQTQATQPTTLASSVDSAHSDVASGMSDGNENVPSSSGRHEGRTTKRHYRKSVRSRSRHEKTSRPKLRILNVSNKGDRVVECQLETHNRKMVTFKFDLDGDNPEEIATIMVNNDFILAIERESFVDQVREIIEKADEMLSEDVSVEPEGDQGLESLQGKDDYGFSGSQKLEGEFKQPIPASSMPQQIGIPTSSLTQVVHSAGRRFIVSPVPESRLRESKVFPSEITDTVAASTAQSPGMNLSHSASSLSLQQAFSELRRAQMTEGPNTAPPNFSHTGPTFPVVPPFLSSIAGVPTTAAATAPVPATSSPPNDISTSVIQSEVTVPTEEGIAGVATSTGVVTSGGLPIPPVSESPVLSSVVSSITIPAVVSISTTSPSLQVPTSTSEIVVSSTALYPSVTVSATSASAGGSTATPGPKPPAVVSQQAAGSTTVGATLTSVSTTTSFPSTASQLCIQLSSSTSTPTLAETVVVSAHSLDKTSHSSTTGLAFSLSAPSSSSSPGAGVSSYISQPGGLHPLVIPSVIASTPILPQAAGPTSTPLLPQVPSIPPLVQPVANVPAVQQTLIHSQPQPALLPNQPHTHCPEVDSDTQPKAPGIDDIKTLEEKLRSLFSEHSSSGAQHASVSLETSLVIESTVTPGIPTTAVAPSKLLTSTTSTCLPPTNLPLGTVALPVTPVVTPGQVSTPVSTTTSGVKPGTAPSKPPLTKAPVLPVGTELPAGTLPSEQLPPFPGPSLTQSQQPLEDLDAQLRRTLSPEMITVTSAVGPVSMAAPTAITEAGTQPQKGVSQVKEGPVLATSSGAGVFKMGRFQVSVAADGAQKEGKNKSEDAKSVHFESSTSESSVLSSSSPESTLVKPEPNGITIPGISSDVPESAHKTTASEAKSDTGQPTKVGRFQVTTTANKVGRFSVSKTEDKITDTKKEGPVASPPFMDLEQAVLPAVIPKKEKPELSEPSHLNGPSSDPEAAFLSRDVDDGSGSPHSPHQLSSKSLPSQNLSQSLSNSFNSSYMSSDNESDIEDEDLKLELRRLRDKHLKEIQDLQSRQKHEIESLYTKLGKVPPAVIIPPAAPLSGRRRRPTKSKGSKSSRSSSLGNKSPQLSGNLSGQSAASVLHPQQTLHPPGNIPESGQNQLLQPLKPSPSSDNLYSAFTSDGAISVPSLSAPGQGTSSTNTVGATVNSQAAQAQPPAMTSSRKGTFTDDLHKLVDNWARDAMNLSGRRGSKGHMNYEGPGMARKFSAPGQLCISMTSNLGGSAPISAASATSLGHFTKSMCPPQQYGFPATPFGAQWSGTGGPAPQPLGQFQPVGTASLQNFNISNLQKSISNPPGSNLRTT
Calcium/calmodulin-dependent protein kinase type II subunit delta (Homo sapiens), sequence (Q13557 whole entry): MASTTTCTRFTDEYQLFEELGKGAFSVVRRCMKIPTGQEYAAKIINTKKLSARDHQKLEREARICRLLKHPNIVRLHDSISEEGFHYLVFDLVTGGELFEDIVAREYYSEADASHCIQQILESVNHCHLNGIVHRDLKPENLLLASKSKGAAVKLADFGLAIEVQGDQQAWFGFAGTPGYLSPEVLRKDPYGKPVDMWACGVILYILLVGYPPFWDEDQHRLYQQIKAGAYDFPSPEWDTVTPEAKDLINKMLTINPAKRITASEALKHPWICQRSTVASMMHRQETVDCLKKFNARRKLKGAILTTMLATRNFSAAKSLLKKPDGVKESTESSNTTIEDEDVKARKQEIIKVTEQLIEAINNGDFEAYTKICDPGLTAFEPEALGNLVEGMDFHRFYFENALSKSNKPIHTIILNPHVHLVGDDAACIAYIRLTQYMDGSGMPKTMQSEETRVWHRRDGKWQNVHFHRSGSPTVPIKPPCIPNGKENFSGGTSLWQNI
3-phosphoinositide-dependent protein kinase 1 (Homo sapiens), sequence (O15530 whole entry): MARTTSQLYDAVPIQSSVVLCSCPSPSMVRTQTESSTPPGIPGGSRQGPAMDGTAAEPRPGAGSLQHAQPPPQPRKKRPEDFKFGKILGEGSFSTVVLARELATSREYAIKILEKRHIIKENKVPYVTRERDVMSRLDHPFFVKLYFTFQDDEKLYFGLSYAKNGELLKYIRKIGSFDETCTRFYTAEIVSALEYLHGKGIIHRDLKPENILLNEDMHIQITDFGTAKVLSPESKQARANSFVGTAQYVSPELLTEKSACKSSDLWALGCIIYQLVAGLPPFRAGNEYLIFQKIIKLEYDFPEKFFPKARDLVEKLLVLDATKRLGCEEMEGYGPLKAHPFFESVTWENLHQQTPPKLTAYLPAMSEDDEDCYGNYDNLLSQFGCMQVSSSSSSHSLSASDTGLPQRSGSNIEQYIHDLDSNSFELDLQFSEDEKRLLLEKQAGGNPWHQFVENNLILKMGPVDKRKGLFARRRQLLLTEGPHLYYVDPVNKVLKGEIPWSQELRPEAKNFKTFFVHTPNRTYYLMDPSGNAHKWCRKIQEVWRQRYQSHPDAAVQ
Ribosomal protein S6 kinase alpha-3 (Homo sapiens), sequence (P51812 whole entry, the tested form may be a part): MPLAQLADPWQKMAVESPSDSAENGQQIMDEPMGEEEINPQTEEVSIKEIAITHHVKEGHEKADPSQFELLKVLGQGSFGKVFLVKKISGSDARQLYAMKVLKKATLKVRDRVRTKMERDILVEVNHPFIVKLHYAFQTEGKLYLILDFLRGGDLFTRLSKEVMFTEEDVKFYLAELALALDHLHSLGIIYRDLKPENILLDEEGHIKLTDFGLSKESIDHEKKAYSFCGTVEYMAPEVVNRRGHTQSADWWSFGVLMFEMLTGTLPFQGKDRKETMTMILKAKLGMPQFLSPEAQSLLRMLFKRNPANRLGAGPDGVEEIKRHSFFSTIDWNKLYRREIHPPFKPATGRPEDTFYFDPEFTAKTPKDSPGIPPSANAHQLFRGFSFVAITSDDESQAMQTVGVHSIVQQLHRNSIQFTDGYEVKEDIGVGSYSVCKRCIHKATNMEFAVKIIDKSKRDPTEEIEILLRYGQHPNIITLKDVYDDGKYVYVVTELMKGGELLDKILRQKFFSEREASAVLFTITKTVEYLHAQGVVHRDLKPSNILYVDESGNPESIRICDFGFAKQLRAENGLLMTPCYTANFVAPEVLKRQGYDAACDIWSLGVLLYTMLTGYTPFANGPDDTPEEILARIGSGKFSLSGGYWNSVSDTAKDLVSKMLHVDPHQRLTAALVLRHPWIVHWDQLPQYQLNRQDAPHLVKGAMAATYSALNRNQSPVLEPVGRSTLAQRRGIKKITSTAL
Cyclin-dependent kinase 11B (Homo sapiens), sequence (P21127 whole entry, the tested form may be a part): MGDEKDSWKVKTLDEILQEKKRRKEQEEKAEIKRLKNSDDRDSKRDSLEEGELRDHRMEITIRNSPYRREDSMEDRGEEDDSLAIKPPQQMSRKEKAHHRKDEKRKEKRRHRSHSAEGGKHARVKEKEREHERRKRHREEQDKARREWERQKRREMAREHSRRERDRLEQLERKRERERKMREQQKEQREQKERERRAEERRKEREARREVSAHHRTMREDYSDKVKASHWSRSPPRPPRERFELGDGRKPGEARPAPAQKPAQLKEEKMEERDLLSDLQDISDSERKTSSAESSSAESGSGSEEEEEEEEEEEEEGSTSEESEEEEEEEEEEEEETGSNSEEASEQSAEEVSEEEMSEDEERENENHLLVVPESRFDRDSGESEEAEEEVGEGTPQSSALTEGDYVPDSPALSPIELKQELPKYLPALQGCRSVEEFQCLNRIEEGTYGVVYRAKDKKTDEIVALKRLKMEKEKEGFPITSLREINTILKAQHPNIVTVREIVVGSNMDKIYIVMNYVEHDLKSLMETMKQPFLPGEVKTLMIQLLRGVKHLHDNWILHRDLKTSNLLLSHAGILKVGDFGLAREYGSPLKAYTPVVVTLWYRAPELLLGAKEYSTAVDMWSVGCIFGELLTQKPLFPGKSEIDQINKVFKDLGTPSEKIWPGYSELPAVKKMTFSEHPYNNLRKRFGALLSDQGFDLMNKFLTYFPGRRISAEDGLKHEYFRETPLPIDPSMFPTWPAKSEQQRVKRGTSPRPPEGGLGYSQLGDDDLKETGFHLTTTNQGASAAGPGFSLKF

With CCN1CCN(Cc2ccc(NC(=O)c3ccc(C)c(Oc4ccnc5[nH]ccc45)c3)cc2C(F)(F)F)CC1 the inhibition [1] was “inactive”, the inhibition [2] was 5.3% and the inhibition [3] was 18.9%. The inhibition [4] was 5.5%, the inhibition [5] was “inactive” and the inhibition [6] was “inactive”.
CNc1cc(Oc2cc(C(=O)Nc3cc(N4CCN(C)CC4)cc(C(F)(F)F)c3)ccc2C)ncn1 was tested, and the inhibition [7] was -0.8%, the inhibition [8] was 15.6% and the inhibition [9] was 1.9%. For the same compound, the inhibition [10] was 2.7%, the inhibition [11] was 21.5% and the inhibition [12] was -5.8%.
In the case of CCN1CCN(Cc2ccc(NC(=O)c3ccc(C)c(/C=C/c4cnc5[nH]ccc5c4OC)c3)cc2C(F)(F)F)CC1, the residual activity [13] is reported as 100%, the inhibition [14] is reported as 74% and the inhibition [15] is reported as 5.4%.

Reference: ChEMBL document CHEMBL5696442, “Discovery of type II inhibitors of TGFβ-activated kinase 1 (TAK1) and mitogen-activated protein kinase kinase kinase kinase 2 (MAP4K2)” (J Med Chem, 2015)
